Reference: US20140107100A1, “Benzoxazepines as Inhibitors of PI3K/mTOR and Methods of Their Use and Manufacture” (EXELIXIS, INC., priority 2010, published 2014)

These compounds were tested against mTOR/GbL/Raptor (mTORC1) (Homo sapiens, UniProt P42345) (assay: mTOR/GbL/Raptor (mTORC1) ELISA assay, phosphorylation of 4E-BP1). Conditions: 0.2 nM mTORC1, 40 uM ATP, 50 nM NHis-tagged 4E-BP1, 120 minutes; read-out: IC50 in this assay (mTORC1 ELISA).
Assay type: biochemical
Procedure: The measurement of mTORC1 enzyme activity was performed in an ELISA assay format following the phosphorylation of 4E-BP1 protein. All experiments were performed in the 384-well format. Generally, 0.5 μL DMSO containing varying concentrations of the test Compound was mixed with 15 μL enzyme solution. Kinase reactions were initiated with the addition of 15 μL of substrates-containing solution. The assay conditions were-as follows; 0.2 nM mTORC1, 40 uM ATPand 50 nM NHis-tagged4E-BP1 in20 mM Hepes, pH 7.2, 1 mM DTT, 50 mMNaC1, 10 mM MnC12, 0.02 mg/mL BSA, 0.01% CHAPS, 50 mM β-glycerophosphate. Following an incubation of 120 minutes at anibient temperature, 20 μL of the reaction volume was transferred to a Ni-Chelate-coated 384-well plate. The binding step of the 4E-BP1 protein proceeded for 60 minutes, followed by washing 4 times each with 50 uL of Tris-buffered saline solution (TBS). Anti-phospho-4E-BPl rabbit-IgG ([…]. 1:5000) in 5% BSA-TBST (0.2% Tween-20 in TBS) was added and further incubated for 60 minutes. Incubation with a secondary HRP-tagged anti-IgG was similarly performed after washing off the primary antibody (4 washes of 50 μL). Following the final wash step with TBST, 20 μL of SuperSignal ELISA Femto (Pierce Biotechnology) was added and the luminescence measured using an En Vision plate reader.

| SMILES | IC50 [µM] |
| --- | --- |
| Cc1nc2cc(-c3cc(C)c4c(c3)CN(c3nc(N)nc(C)c3C(C)C)CCO4)cnc2[nH]1 [Compound 162, 4-methyl-5-(1-methylethyl)-6-[9-methyl-7-(2-methyl-3H-imidazo[4,5-b]pyridin-6-yl)-2,3-dihydro-1,4-benzoxazepin-4(5H)-yl]pyrimidin-2-amine] | ≤ 0.1 |
| Cc1cc(-c2cnc3sc(N)nc3c2)cc2c1OCCN(c1nc(N)nc(Cl)c1C(C)C)C2 [Compound 62, 6-{4-[2-amino-6-chloro-5-(1-methylethyl)pyrimidin-4-yl]-9-methyl-2,3,4,5-tetrahydro-1,4-benzoxazepin-7-yl}[1,3]thiazolo[5,4-b]pyridin-2-amine] | ≤ 0.1 |
| Cc1ncc(C(C)C)c(N2CCOc3c(C)cc(-c4nnc(N)s4)cc3C2)n1 [Compound 175, 5-{9-methyl-4-[2-methyl-5-(1-methylethyl)pyrimidin-4-yl]-2,3,4,5-tetrahydro-1,4-benzoxazepin-7-yl}-1,3,4-thiadiazol-2-amine] | ≤ 0.1 |
| Cc1cc(-c2cnc3sc(N)nc3c2)cc2c1OCCN(c1nc(N3CC(O)C3)nc(C)c1C(C)C)C2 [Compound 139, 1-{4-[7-(2-amino[1,3]thiazolo[5,4-b]pyridin-6-yl)-9-methyl-2,3-dihydro-1,4-benzoxazepin-4(5H)-yl]-6-methyl-5-(1-methylethyl)pyrimidin-2-yl}azetidin-3-ol] | ≤ 0.1 |
| Cc1nc2c(c(N3CCOc4c(C)cc(-c5cnc6sc(N)nc6c5)cc4C3)n1)CC(C)(C)CC2 [Compound 20, 6-[9-methyl-4-(2,6,6-trimethyl-5,6,7,8-tetrahydroquinazolin-4-yl)-2,3,4,5-tetrahydro-1,4-benzoxazepin-7-yl][1,3]thiazolo[5,4-b]pyridin-2-amine] | ≤ 0.1 |
| Cc1cc(-c2cnc3sc(N)nc3c2)cc2c1OCCN(c1nc(CF)nc(C)c1C(C)C)C2 [Compound 120, 6-{4-[2-(fluoromethyl)-6-methyl-5-(1-methylethyl)pyrimidin-4-yl]-9-methyl-2,3,4,5-tetrahydro-1,4-benzoxazepin-7-yl}[1,3]thiazolo[5,4-b]pyridin-2-amine] | ≤ 0.1 |
| Cc1cc(-c2cnc(Cl)c(NS(=O)(=O)C(F)(F)F)c2)cc2c1OCCN(c1nc(N)nc(C)c1C(C)C)C2 [Compound 52, N-(5-{4-[2-amino-6-methyl-5-(1-methylethyl)pyrimidin-4-yl]-9-methyl-2,3,4,5-tetrahydro-1,4-benzoxazepin-7-yl}-2-chloropyridin-3-yl)-1,1,1-trifluoromethanesulfonamide] | ≤ 0.1 |
| Cc1cc(-c2cnc3sc(N)nc3c2)cc2c1OCCN(c1nc(N)ncc1C(F)(F)F)C2 [Compound 12, 6-{4-[2-amino-5-(trifluoromethyl)pyrimidin-4-yl]-9-methyl-2,3,4,5-tetrahydro-1,4-benzoxazepin-7-yl}[1,3]thiazolo[5,4-b]pyridin-2-amine] | ≤ 0.1 |
| Cc1cc(-c2cnc3nc[nH]c3c2)cc2c1OCCN(c1nc(CN(C)CC(F)F)nc(C)c1C(C)C)C2 [Compound 167, 2,2-difluoro-N-({4-[7-(1H-imidazo[4,5-b]pyridin-6-yl)-9-methyl-2,3-dihydro-1,4-benzoxazepin-4(5H)-yl]-6-methyl-5-(1-methylethyl)pyrimidin-2-yl}methyl)-N-methylethanamine] | 0.1 to 0.5 |
| Cc1cc(-c2cnc3sc(N)nc3c2)cc2c1OCCN(c1nc(N)nc(C)c1C)C2 [Compound 7, 6-[4-(2-amino-5,6-dimethylpyrimidin-4-yl)-9-methyl-2,3,4,5-tetrahydro-1,4-benzoxazepin-7-yl][1,3]thiazolo[5,4-b]pyridin-2-amine] | 0.1 to 0.5 |
| Cc1cc(-c2cnc3sc(N)nc3c2)cc2c1OCCN(c1nc(NCCN(C)C)nc(C)c1C(C)C)C2 [Compound 50, N′-{4-[7-(2-amino[1,3]thiazolo[5,4-b]pyridin-6-yl)-9-methyl-2,3-dihydro-1,4-benzoxazepin-4(5H)-yl]-6-methyl-5-(1-methylethyl)pyrimidin-2-yl}-N,N-dimethylethane-1,2-diamine] | ≤ 0.1 |
| Cc1cc(-c2cnc3sc(N)nc3c2)cc2c1OCCN(c1ncc(C(F)(F)F)c(N)n1)C2 [Compound 13, 6-{4-[4-amino-5-(trifluoromethyl)pyrimidin-2-yl]-9-methyl-2,3,4,5-tetrahydro-1,4-benzoxazepin-7-yl}[1,3]thiazolo[5,4-b]pyridin-2-amine] | 0.1 to 0.5 |
| Cc1cc(-c2cnc3sc(N)nc3c2)cc2c1OCCN(c1nc(C3CCCN3C)nc(C)c1C(C)C)C2 (centres unmarked) [Compound 149, 6-{9-methyl-4-[6-methyl-5-(1-methylethyl)-2-(1-methylpyrrolidin-2-yl)pyrimidin-4-yl]-2,3,4,5-tetrahydro-1,4-benzoxazepin-7-yl}[1,3]thiazolo[5,4-b]pyridin-2-amine] | ≤ 0.1 |
| Cc1cc(-c2cnc3sc(N)nc3c2)cc2c1OCCN(c1ncnc(Cl)c1C(C)C)C2 [Compound 108, 6-{4-[6-chloro-5-(1-methylethyl)pyrimidin-4-yl]-9-methyl-2,3,4,5-tetrahydro-1,4-benzoxazepin-7-yl}[1,3]thiazolo[5,4-b]pyridin-2-amine] | ≤ 0.1 |
| Cc1cc(-c2cccc(O)c2)cc2c1OCCN(c1nc(N)nc(C)c1C(C)C)C2 [Compound 70, 3-{4-[2-amino-6-methyl-5-(1-methylethyl)pyrimidin-4-yl]-9-methyl-2,3,4,5-tetrahydro-1,4-benzoxazepin-7-yl}phenol] | 0.1 to 0.5 |
| COCCc1nc(C)c(C(C)C)c(N2CCOc3c(C)cc(-c4cnc(Cl)c(NS(C)(=O)=O)c4)cc3C2)n1 [Compound 160, N-[2-chloro-5-(9-methyl-4-{6-methyl-5-(1-methylethyl)-2-[2-(methyloxy)ethyl]pyrimidin-4-yl}-2,3,4,5-tetrahydro-1,4-benzoxazepin-7-yl)pyridin-3-yl]methanesulfonamide] | ≤ 0.1 |
| Cc1cc(-c2cnc3sc(N)nc3c2)cc2c1OCCN(c1nc(C3CC3)nc(C)c1C(C)C)C2 [Compound 150, 6-{4-[2-cyclopropyl-6-methyl-5-(1-methylethyl)pyrimidin-4-yl]-9-methyl-2,3,4,5-tetrahydro-1,4-benzoxazepin-7-yl}[1,3]thiazolo[5,4-b]pyridin-2-amine] | ≤ 0.1 |
| Cc1cc(-c2ccnc(F)c2)cc2c1OCCN(c1nc(N)nc(C)c1C(C)C)C2 [Compound 83, 4-[7-(2-fluoropyridin-4-yl)-9-methyl-2,3-dihydro-1,4-benzoxazepin-4(5H)-yl]-6-methyl-5-(1-methylethyl)pyrimidin-2-amine] | 0.1 to 0.5 |
| Cc1cc(-c2ccn[nH]2)cc2c1OCCN(c1nc(N)nc(C)c1C(C)C)C2 [Compound 72, 4-methyl-5-(1-methylethyl)-6-[9-methyl-7-(1H-pyrazol-5-yl)-2,3-dihydro-1,4-benzoxazepin-4(5H)-yl]pyrimidin-2-amine] | 0.1 to 0.5 |
| COC(C)c1c(C)nc(C)nc1N1CCOc2c(C)cc(-c3cnc4sc(N)nc4c3)cc2C1 (centres unmarked) [Compound 142, 6-(4-{2,6-dimethyl-5-[1-(methyloxy)ethyl]pyrimidin-4-yl}-9-methyl-2,3,4,5-tetrahydro-1,4-benzoxazepin-7-yl)[1,3]thiazolo[5,4-b]pyridin-2-amine] | ≤ 0.1 |
| Cc1cc(-c2nnc(N)s2)cc2c1OCCN(c1ncnc(C)c1C)C2 [Compound 176, 5-[4-(5,6-dimethylpyrimidin-4-yl)-9-methyl-2,3,4,5-tetrahydro-1,4-benzoxazepin-7-yl]-1,3,4-thiadiazol-2-amine] | ≤ 0.1 |
| Cc1cc(-c2cnc3sc(N)nc3c2)cc2c1OCCN(c1ncnc(C)c1C(C)C)C2 [Compound 87, 6-{9-methyl-4-[6-methyl-5-(1-methylethyl)pyrimidin-4-yl]-2,3,4,5-tetrahydro-1,4-benzoxazepin-7-yl}[1,3]thiazolo[5,4-b]pyridin-2-amine] | ≤ 0.1 |
| COCCc1cnc(C)nc1N1CCOc2c(C)cc(-c3cnc4sc(N)nc4c3)cc2C1 [Compound 135, 6-(9-methyl-4-{2-methyl-5-[2-(methyloxy)ethyl]pyrimidin-4-yl}-2,3,4,5-tetrahydro-1,4-benzoxazepin-7-yl)[1,3]thiazolo[5,4-b]pyridin-2-amine] | ≤ 0.1 |
| Cc1cc(-c2cnc3sc(N)nc3c2)cc2c1OCCN(c1nc(CN3CCCC3)ncc1C(C)C)C2 [Compound 92, 6-{9-methyl-4-[5-(1-methylethyl)-2-(pyrrolidin-1-ylmethyl)pyrimidin-4-yl]-2,3,4,5-tetrahydro-1,4-benzoxazepin-7-yl}[1,3]thiazolo[5,4-b]pyridin-2-amine] | ≤ 0.1 |
| CNc1nc(C)c(C(C)C)c(N2CCOc3c(C)cc(-c4cnc5sc(N)nc5c4)cc3C2)n1 [Compound 53, 6-{9-methyl-4-[6-methyl-2-(methylamino)-5-(1-methylethyl)pyrimidin-4-yl]-2,3,4,5-tetrahydro-1,4-benzoxazepin-7-yl}[1,3]thiazolo[5,4-b]pyridin-2-amine] | ≤ 0.1 |
| Cc1cc(-c2cnc3sc(N)nc3c2)cc2c1OCCN(c1nc(N)ncc1C(C)C)C2 [Compound 11, 6-{4-[2-amino-5-(1-methylethyl)pyrimidin-4-yl]-9-methyl-2,3,4,5-tetrahydro-1,4-benzoxazepin-7-yl}[1,3]thiazolo[5,4-b]pyridin-2-amine] | ≤ 0.1 |
